Values quoted from earlier work as cited in patent publication US20100215763A1, “Method of using the body's alternative cellular energy pigments (ACE-pigments) in the therapy of diseases” (priority 2009, published 2010).

System: HSV and HZV skin lesions

## Cc1cc2nc3ccc(N(C)C)cc3nc2cc1N.Cl [neutral red]
Neutral red applied to active lesions followed by UV illumination
  healing of treated HSV and HZV skin lesions: expedited healing
Patients with lesions at more than one location, neutral red and UV limited to a single lesion
  healing of distant HSV lesions: expedited healing in all lesions
